Laboratory results: patent publication US8980795B2, “Strigolactone analogues and their use” (King Abdullah University of Science and Technology, priority 2011, dated 2015)

How the values were obtained:
Striga hermonthica seeds = test: Striga seed germination assay; format: in vivo; settings: concentration of 3.3 μM; positive control, same conditions
Method: Striga Seed Germination Assay Pre-conditioning of Striga hermonthica seeds was carried out in a first step to see the effect of germination stimulants. For this purpose clean Striga seeds were surface sterilized with 2% sodium hypochlorite in sterile water containing 0.4% of Tween-20. About 50 to 100 sterilized seeds were spread on 9-mm diameter glass fibre filter paper discs. Twelve of these discs were placed in a 9-cm diameter Petri-dish on sterilized Whatman filter paper, moistened with 3.0 ml sterilized water. After sealing with parafilm, the Petri-dishes were placed in darkness in an incubator at 30° C. After 10 days of incubation, the discs with preconditioned seeds were supposed to be ready to test germination stimulant. Surplus moisture was evaporated from each petri dish in laminar flow cabinet. The dry discs were then placed in another Petri-dish (six per Petri-dish) containing a filter paper ring (outer diameter 9 cm, inner diameter 8 cm) moistened with 0.9 ml water. Various concentration of the compound of formula IA were applied (50 μl per disc) to triplicate discs. GR24, a synthetic strigolactone analogue, was applied as positive control. Subsequently, the Striga seeds were incubated in darkness at 30° C. for another 48 hours and germination (seeds with radicle protruding through the seed coat) scored with the help of a binocular microscope.

ccd8 rice mutant (d10) = test: Rice tillering assay; format: in vivo, rice (Oryza sativa L.); settings: 2 μM through nutrient solution, supplied daily, tillers counted up to 12 days
Method: Rice seeds were surface sterilized with 2% sodium hypochlorite. The seeds were allowed to germinate in a Petri dish on a moistened filter paper. In the meanwhile bottom of 1.5 ml eppendorf tube was cut and filled with 0.6% phyto-agar. One pre-germinated seed was planted in the center of the tube on solid phytoagar and this tube was fitted in the cap of 10 ml plastic tube. The 10 ml tube was filled with modified Hoagland nutrient solution. After two weeks of planting, the compound of formula IA (2 μM) was added through nutrient solution to half of the tubes of each rice cultivars/mutants and the remaining half were kept as control. The nutrient solution with or without the compound of formula IA was supplied daily. Number of tillers per plant was counted at 24 hours interval up to 12 days of carlactone application.

Structure (SMILES) | germination activity (Striga hermonthica seeds) [%] | tiller number (ccd8 rice mutant (d10))
CC1CC(O/C=C2/C(=O)OC3c4ccccc4CC23)OC1=O (centres unmarked) [GR24] | ~50 | 
CC1=CC(O/C=C(C)\C=C\C2=C(C)CCCC2(C)C)OC1=O (centres unmarked) [Compound IA] |  | reduction of tiller number
